Source: patent US20090099167A1, “Organic compounds” (Novartis Institutes for Biomedical Research, priority 2004, published 2009)

target: T1, human EphB4 receptor (Homo sapiens, UniProt P54760); experiment: EphB4 kinase assay, GST-EphB, 33P incorporation into poly(Glu,Tyr); format: biochemical; details: Table 5; read-out: EphB4, IC50 class
T1 construct: made in house; host or cells: Sf9 or Sf21 (baculovirus)
T1 sequence (P54760 566-987): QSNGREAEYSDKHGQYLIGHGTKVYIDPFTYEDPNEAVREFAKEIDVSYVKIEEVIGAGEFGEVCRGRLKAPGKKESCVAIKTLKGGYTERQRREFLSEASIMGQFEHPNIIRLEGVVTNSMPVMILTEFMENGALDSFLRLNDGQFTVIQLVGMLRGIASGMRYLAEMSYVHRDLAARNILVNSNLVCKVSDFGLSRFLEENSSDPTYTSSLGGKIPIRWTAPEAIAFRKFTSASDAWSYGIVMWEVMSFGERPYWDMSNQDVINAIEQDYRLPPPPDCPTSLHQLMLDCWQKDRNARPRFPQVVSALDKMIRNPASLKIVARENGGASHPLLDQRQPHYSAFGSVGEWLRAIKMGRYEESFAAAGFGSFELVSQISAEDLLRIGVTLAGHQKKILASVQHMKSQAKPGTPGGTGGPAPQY
Source text: EphB4: Production and measure of enzymatic activity: Generation of Bac-to-Bac™ (Initrogen Life Technologies, Basel, Switzerland) GST-fusion expression vectors: Entire cytoplasmatic coding regions of the EphB-class are amplified by PCR from cDNA libraries derived from human placenta or brain, respectively. Recombinant baculovirus are generated that express the amino acid region 566-987 of the human EphB4 receptor (SwissProt Database, Accession No. P54760). GST sequence is cloned into pFastBac1® vector (Invitrogen Life Technologies, Basel, Switzerland) and PCR amplified. cDNAs encoding EphB4-receptor domains, respectively, are cloned in frame 3′prime to the GST sequence into this modified FastBac1 vector to generate pBac-to-Bac™ donor vectors. Single colonies arising from the transformation are inoculated to give overnight cultures for small scale plasmid preparation. […] By automated sequencing the inserts and approximately 50 bp of the flanking vector sequences are confirmed on both strands. Production of viruses: Viruses for each of the kinases are made according to the protocol supplied by GIBCO if not stated otherwise. In brief, transfer vectors containing the kinase domains are transfected into the DH10Bac cell line (GIBCO) and plated on selective agar plates. Colonies without insertion of the fusion sequence into the viral genome (carried by the bacteria) are blue. Single white colonies are picked and viral DNA (bacmid) isolated from the bacteria by standard plasmid purification procedures. Sf9 cells or Sf21 cells are then transfected in 25 cm2 flasks with the viral DNA using Cellfectin reagent according to the protocol. Purification of GST-tagged kinases: The centrifuged cell lysate is loaded onto a 2 mL glutathione-sepharose column (Pharmacia) and washed three times with 10 mL of 25 mM Tris-HCl, pH 7.5, 2 mM EDTA, 1 mM DTT, 200 mM NaCl. The GST-tagged proteins are then eluted by 10 applications (1 mL each) of 25 mM Tris-HCl, pH 7.5, 10 mM reduced-glutathione, 100 mM NaCl, 1 mM DTT, 10% Glycerol and stored at −70° C. Protein kinase assays: The activities of protein kinases are assayed in the presence or absence of inhibitors, by measuring the incorporation of 33P from [γ33P]ATP into a polymer of glutamic acid and tyrosine (poly(Glu,Tyr)) as a substrate. The kinase assays with purified GST-EphB (30 ng) are carried out for 15-30 min at ambient temperature in a final volume of 30 μL containing 20 mM Tris.HCl, pH 7.5, 10 mM MgCl2, 3-50 mM MnCl2, 0.01 mM Na3VO4, 1% DMSO, 1 mM DTT, 3 μg/mL poly(Glu,Tyr) 4:1 (Sigma; St. Louis, Mo., USA) and 2.0-3.0 μM ATP (γ-[33P]-ATP 0.1 μCi). The assay is terminated by the addition of 20 μL of 125 mM EDTA. Subsequently, 40 μl of the reaction mixture are transferred onto Immobilon-PVDF membrane (Millipore, Bedford, Mass., USA) previously soaked for 5 min with methanol, rinsed with water, then soaked for 5 min with 0.5% H3PO4 and mounted on vacuum manifold with disconnected vacuum source. After spotting all samples, vacuum is connected and each well rinsed with 200 μl 0.5% H3PO4. Membranes are removed and washed 4× on a shaker with 1.0% H3PO4, once with ethanol. Membranes are counted after drying at ambient temperature, mounting in Packard TopCount96-well frame, and addition of 10 μL/well of Microscint™ (Packard). IC50 values are calculated by linear regression analysis of the percentage inhibition of each compound in duplicate, at four concentrations (usually 0.01, 0.1, 1 and 10 μM). One unit of protein kinase activity is defined as 1 nmole of 33P ATP transferred from [γ33P] ATP to the substrate protein per minute per mg of protein at 37° C. Compounds of formula I show EphB4 inhibition down to 10 nM, preferably IC50 values between 0.01-1.0 μM.

Row | SMILES | IC50
1 | COc1ccc(-c2cnn3c(N)c(-c4ccc(F)c(Cl)c4)c(C)nc23)cc1OC [Example 94, 6-(3-Chloro-4-fluoro-phenyl)-3-(3,4-dimethoxy-phenyl)-5-methyl-pyrazolo[1,5-a]pyrimidin-7-ylamine] | < 1000 nM
2 | COc1ccc(-c2cnn3c(N)c(-c4ccc(F)c(Cl)c4)c(C)nc23)cc1 [Example 95, 6-(3-Chloro-4-fluoro-phenyl)-3-(4-methoxy-phenyl)-5-methyl-pyrazolo[1,5-a]pyrimidin-7-ylamine] | < 1000 nM
3 | COc1ccc(-c2cnn3c(N)c(-c4ccc(F)cc4)c(C)nc23)cc1 [Example 96, 6-(4-Fluoro-phenyl)-3-(4-methoxy-phenyl)-5-methyl-pyrazolo[1,5-a]pyrimidin-7-ylamine] | < 1000 nM
4 | Cc1nc2c(-c3cccc(N4CCN(CCO)CC4)c3)cnn2c(N)c1-c1ccc(F)cc1 [Example 97, 2-(4-{3-[7-Amino-6-(4-fluoro-phenyl)-5-methyl-pyrazolo[1,5-a]pyrimidin-3-yl]-phenyl}-piperazin-1-yl)-ethanol] | < 1000 nM
5 | Cc1nc2c(-c3cccc(N4CCN(C)CC4)c3)cnn2c(N)c1-c1ccc(F)c(F)c1 [Example 98, 6-(3,4-Difluoro-phenyl)-5-methyl-3-[3-(4-methyl-piperazin-1-yl)-phenyl]-pyrazolo[1,5-a]pyrimidin-7-ylamine] | < 1000 nM
6 | COc1ccc(-c2cnn3c(N)c(-c4ccc(F)c(F)c4)c(C)nc23)cc1OC [Example 99, 6-(3,4-Difluoro-phenyl)-3-(3,4-dimethoxy-phenyl)-5-methyl-pyrazolo[1,5-a]pyrimidin-7-ylamine] | < 1000 nM
7 | Cc1nc2c(-c3cccc(N4CCN(CCO)CC4)c3)cnn2c(N)c1-c1ccc(F)c(Cl)c1 [Example 100, 2-(4-{3-[7-Amino-6-(3-chloro-4-fluoro-phenyl)-5-methyl-pyrazolo[1,5-a]pyrimidin-3-yl]-phenyl}-piperazin-1-yl)-ethanol] | < 1000 nM
8 | Cc1nc2c(-c3cccc(N4CCN(CCO)CC4)c3)cnn2c(N)c1-c1ccc(F)c(F)c1 [Example 101, 2-(4-{3-[7-Amino-6-(3,4-difluoro-phenyl)-5-methyl-pyrazolo[1,5-a]pyrimidin-3-yl]-phenyl}-piperazin-1-yl)-ethanol] | < 1000 nM
9 | Cc1nc2c(-c3cccc(N4CCC(N5CCCC5)CC4)c3)cnn2c(N)c1-c1cccc(Cl)c1 [Example 102, 6-(3-Chloro-phenyl)-5-methyl-3-[3-(4-pyrrolidin-1-yl-piperidin-1-yl)-phenyl]-pyrazolo[1,5-a]pyrimidin-7-ylamine] | < 1000 nM
10 | Cc1nc2c(-c3cccc(N4CCC(N5CCCC5)CC4)c3)cnn2c(N)c1-c1ccc(F)cc1 [Example 103, 6-(4-Fluoro-phenyl)-5-methyl-3-[3-(4-pyrrolidin-1-yl-piperidin-1-yl)-phenyl]-pyrazolo[1,5-a]pyrimidin-7-ylamine] | < 1000 nM
11 | Cc1nc2c(-c3cccc(N4CC[N+](C)([O-])CC4)c3)cnn2c(N)c1-c1ccc(F)cc1 [Example 106, 6-(4-Fluoro-phenyl)-5-methyl-3-[3-(4-methyl-4-oxy-piperazin-1-yl)-phenyl]-pyrazolo[1,5-a]pyrimidin-7-ylamine] | < 1000 nM
12 | Cc1nc2c(-c3cccc([N+]4([O-])CC[N+](C)([O-])CC4)c3)cnn2c(N)c1-c1ccc(F)cc1 (stereo not drawn) [Example 107, 6-(4-Fluoro-phenyl)-5-methyl-3-[3-(4-methyl-1,4-dioxy-piperazin-1-yl)-phenyl]-pyrazolo[1,5-a]pyrimidin-7-ylamine] | < 1000 nM
